Test results taken from ChEMBL document CHEMBL6071200, “Discovery of Ring-Annulated Analogues of Cannabidiol as Potential Anticancer Agents: Synthesis and Biological Evaluation” (ACS Med Chem Lett, 2024).
Converted amounts (≈) assume the structure as drawn. The source made the active and inactive calls. The calls are words filed in the database; no cut-off is given here.

Assays:
MCF7 [1] = assay: Anticancer activity against human MCF7 cells; assay type: functional, cell-based
DU-145 = assay: Anticancer activity against human DU-145 cells; assay type: functional, cell-based
[2] = Anticancer activity against mouse NIH3T3 cells; assay type: toxicity, cell-based
Raji = assay: Anticancer activity against human Raji cells; assay type: functional, cell-based
HT-29 = assay: Anticancer activity against human HT-29 cells; assay type: functional, cell-based
Jurkat = assay: Anticancer activity against human Jurkat cells; assay type: functional, cell-based
NCI-H226 = assay: Anticancer activity against human NCI-H226 cells; assay type: functional, cell-based
SNB-19 = assay: Anticancer activity against human SNB-19 cells; assay type: functional, cell-based
HCT-116 [3] = assay: Cytotoxicity against human HCT-116 cells assessed as inhibition of cell growth at 20 uM incubated for 48 hrs by SRB assay relative to control; assay type: functional
MCF7 [4] = assay: Cytotoxicity against human MCF7 cells assessed as inhibition of cell growth at 20 uM incubated for 48 hrs by SRB assay relative to control; assay type: functional
HCT-116 [5] = assay: Cytotoxicity against human HCT-116 cells assessed as inhibition of cell growth incubated for 48 hrs by SRB assay; assay type: functional, cell-based; conditions: HCT-116, 48 h
MCF7 [6] = assay: Cytotoxicity against human MCF7 cells assessed as inhibition of cell growth incubated for 48 hrs by SRB assay; assay type: functional, cell-based; conditions: MCF7, 48 h
[7] = Cytotoxicity against human HEK293 cells assessed as inhibition of cell growth incubated for 48 hrs by SRB assay; assay type: toxicity, cell-based
[8] = Selectivity index, ratio of IC50 for HEK293 cells to IC50 for human HCT-116 cells; assay type: toxicity; conditions: HEK293 cells versus HCT-116 cells, read-out: Ratio IC50
[9] = Selectivity index, ratio of IC50 for HEK293 cells to IC50 for human MCF7 cells; assay type: toxicity; conditions: HEK293 cells versus MCF7 cells, read-out: Ratio IC50
MCF7 [10] = assay: Induction of apoptosis in human MCF7 cells assessed as viable cells at 4.4 uM incubated for 24 hrs by Annexin V-FITC/PI staining based flow cytometric analysis (reference value: 88.20 %); assay type: functional; conditions: read-out: Activity
MCF7 [11] = assay: Induction of apoptosis in human MCF7 cells assessed as early apoptotic cells at 4.4 uM incubated for 24 hrs by Annexin V-FITC/PI staining based flow cytometric analysis (reference value: 2.93 %); assay type: functional
MCF7 [12] = assay: Induction of apoptosis in human MCF7 cells assessed as late apoptotic cells at 4.4 uM incubated for 24 hrs by Annexin V-FITC/PI staining based flow cytometric analysis (reference value: 4.85 %); assay type: functional
MCF7 [13] = assay: Induction of apoptosis in human MCF7 cells assessed as necrotic cells at 4.4 uM incubated for 24 hrs by Annexin V-FITC/PI staining based flow cytometric analysis (reference value: 4.02 %); assay type: functional
MCF7 [14] = assay: Inhibition of colony formation in human MCF7 cells assessed as reduction in number of colonies at subtoxic doses measured after 48 hrs by crystal violet staining based analysis; assay type: functional, cell-based
MCF7 [15] = assay: Induction of ROS production in human MCF7 cells assessed as DCFDA intensity at 4.4 uM incubated for 24 hrs by flow cytometric analysis (reference value: 0.95 %); assay type: functional
MCF7 [16] = assay: Induction of mitochondrial membrane loss in human MCF7 cells assessed as fold change at 4.4 uM incubated for 24 hrs by Mitotracker dye based flow cytometric analysis relative to control; assay type: functional
MCF7 [17] = assay: Cell cycle arrest in human MCF7 cells assessed as accumulation of cells at G1 phase at 4.4 uM incubated for 24 hrs by PI staining based flow cytometric analysis (reference value: 63.9 %); assay type: functional
MCF7 [18] = assay: Cell cycle arrest in human MCF7 cells assessed as accumulation of cells at S phase at 4.4 uM incubated for 24 hrs by PI staining based flow cytometric analysis (reference value: 22.93 %); assay type: functional
MCF7 [19] = assay: Cell cycle arrest in human MCF7 cells assessed as accumulation of cells at G2/M phase at 4.4 uM incubated for 24 hrs by PI staining based flow cytometric analysis (reference value: 13.7 %); assay type: functional
MCF7 [20] = assay: Anticancer activity against human MCF7 cells assessed as reduction in cell viability at 4.4 uM incubated for 48 hrs by SRB assay relative to control; assay type: functional
MCF7 [21] = assay: Anticancer activity against human MCF7 cells assessed as inhibition of cell growth at 4.4 uM preincubated with SR144528 for 1 hrs followed by compound addition and measured after 48 hrs by SRB assay relative to control; assay type: functional
MCF7 [22] = assay: Anticancer activity against human MCF7 cells assessed as inhibition of cell growth at 4.4 uM preincubated with LY320135 for 1 hrs followed by compound addition and measured after 48 hrs by SRB assay; assay type: functional, cell-based
MCF7 [23] = assay: Anticancer activity against human MCF7 cells assessed as inhibition of cell growth at 4.4 uM preincubated with ML-193 for 1 hrs followed by compound addition and measured after 48 hrs by SRB assay; assay type: functional, cell-based
MCF7 [24] = assay: Anticancer activity against human MCF7 cells assessed as inhibition of cell growth at 4.4 uM preincubated with capsazepine for 1 hrs followed by compound addition and measured after 48 hrs by SRB assay; assay type: functional, cell-based
MCF7 [25] = assay: Anticancer activity against human MCF7 cells assessed as inhibition of cell growth at 4.4 uM preincubated with GW9662 for 1 hrs followed by compound addition and measured after 48 hrs by SRB assay; assay type: functional, cell-based
[26] = Solubility of compound in water by UV absorbance based analysis; assay type: physicochemical
[27] = Solubility of compound in SGF by UV absorbance based analysis; assay type: physicochemical
[28] = Solubility of compound in SIF by UV absorbance based analysis; assay type: physicochemical
[29] = Metabolic stability in human liver microsomes assessed as half-life at 5 uM measured upto 30 mins in presence of NADPH by LC-MS/MS analysis; assay type: ADME, Microsome
[30] = Metabolic stability in human liver microsomes assessed as intrinsic clearance at 5 uM measured upto 30 mins per mg protein in presence of NADPH by LC-MS/MS analysis; assay type: ADME, Microsome; conditions: read-out: CLH
[31] = Metabolic stability in human liver assessed as intrinsic clearance at 5 uM measured upto 30 mins in presence of NADPH by LC-MS/MS analysis; assay type: ADME, tissue-based; conditions: read-out: CLH
[32] = Metabolic stability in human liver microsomes assessed as hepatic extraction ratio at 5 uM measured upto 30 mins in presence of NADPH by LC-MS/MS analysis; assay type: ADME, Microsome; conditions: read-out: ERH
Cytochrome P450 2C19 = Cytochrome P450 2C19 (Homo sapiens, UniProt P33261); assay: Inhibition of CYP2C19 in human liver microsomes using S-mephenytoin substrate at 1 to 10 uM in presence of NADPH by LC-MS/MS analysis; assay type: ADME, Microsome; conditions: dose 1-10 µM
Sequence of Cytochrome P450 2C19 (P33261 whole entry): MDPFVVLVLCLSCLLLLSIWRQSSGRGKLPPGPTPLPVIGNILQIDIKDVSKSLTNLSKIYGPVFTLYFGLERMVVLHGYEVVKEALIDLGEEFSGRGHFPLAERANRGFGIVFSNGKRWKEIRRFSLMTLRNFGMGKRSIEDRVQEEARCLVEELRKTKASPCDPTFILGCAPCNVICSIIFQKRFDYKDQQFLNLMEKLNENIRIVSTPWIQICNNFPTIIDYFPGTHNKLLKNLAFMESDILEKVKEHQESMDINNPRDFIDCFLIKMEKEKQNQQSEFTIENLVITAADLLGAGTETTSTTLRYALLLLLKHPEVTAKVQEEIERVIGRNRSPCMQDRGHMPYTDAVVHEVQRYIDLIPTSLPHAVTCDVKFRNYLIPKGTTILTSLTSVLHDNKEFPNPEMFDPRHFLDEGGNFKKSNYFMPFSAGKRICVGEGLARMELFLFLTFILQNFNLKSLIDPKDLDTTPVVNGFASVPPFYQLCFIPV

Cytochrome P450 1A2 = Cytochrome P450 1A2 (Homo sapiens, UniProt P05177); assay: Inhibition of CYP1A2 in human liver microsomes using […] substrate at 1 to 10 uM in presence of NADPH by LC-MS/MS analysis; assay type: ADME, Microsome; conditions: dose 1-10 µM
Sequence of Cytochrome P450 1A2 (P05177 whole entry): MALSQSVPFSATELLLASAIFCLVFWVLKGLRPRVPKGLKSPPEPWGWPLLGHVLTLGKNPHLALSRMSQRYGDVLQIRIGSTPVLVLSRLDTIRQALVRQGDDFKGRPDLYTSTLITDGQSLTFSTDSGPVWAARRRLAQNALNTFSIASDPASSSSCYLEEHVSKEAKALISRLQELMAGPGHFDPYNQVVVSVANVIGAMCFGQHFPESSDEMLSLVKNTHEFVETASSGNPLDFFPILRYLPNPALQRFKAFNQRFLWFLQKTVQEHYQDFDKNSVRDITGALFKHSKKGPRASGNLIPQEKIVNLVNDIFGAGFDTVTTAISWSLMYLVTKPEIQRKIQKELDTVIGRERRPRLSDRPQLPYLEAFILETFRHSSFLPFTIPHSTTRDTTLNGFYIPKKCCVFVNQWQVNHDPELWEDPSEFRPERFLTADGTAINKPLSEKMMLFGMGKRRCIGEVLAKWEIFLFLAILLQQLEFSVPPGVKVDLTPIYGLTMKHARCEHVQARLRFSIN

[33] = Permeability of compound at 100 uM incubated for 16 hrs by PAMPA-BBB assay; assay type: ADME
[34] = Metabolic stability in mouse liver microsomes assessed as half-life at 5 uM measured upto 30 mins in presence of NADPH by LC-MS/MS analysis; assay type: ADME, Microsome
[35] = Metabolic stability in mouse liver microsomes assessed as intrinsic clearance at 5 uM measured upto 30 mins per mg protein in presence of NADPH by LC-MS/MS analysis; assay type: ADME, Microsome; conditions: read-out: CLH
[36] = Metabolic stability in mouse liver assessed as intrinsic clearance at 5 uM measured upto 30 mins in presence of NADPH by LC-MS/MS analysis; assay type: ADME, tissue-based; conditions: read-out: CLH
[37] = Metabolic stability in mouse liver microsomes assessed as hepatic extraction ratio at 5 uM measured upto 30 mins in presence of NADPH by LC-MS/MS analysis; assay type: ADME, Microsome; conditions: read-out: ERH

Which results are given for `C=C(C)[C@@H]1CCC(C)=C[C@H]1C1=C(O)C(=O)C(CCCCC)=C(C)C1=O`?
IC50 (MCF7 [1]): 449 nM; IC50 (DU-145): 449 nM; IC50 [2]: 449 nM; IC50 (Raji): 449 nM; IC50 (HT-29): 449 nM; IC50 (Jurkat): 449 nM; IC50 (NCI-H226): 449 nM; IC50 (SNB-19): 449 nM

Which results are given for `C=C(C)[C@@H]1CCC(C)=C[C@H]1C1=C(O)C(=O)C(CCCCC)=CC1=O`?
IC50 (MCF7 [1]): 449 nM; IC50 (DU-145): 449 nM; IC50 [2]: 449 nM; IC50 (Raji): 449 nM; IC50 (HT-29): 449 nM; IC50 (Jurkat): 449 nM; IC50 (NCI-H226): 449 nM; IC50 (SNB-19): 449 nM

With `C=C(C)[C@@H]1CCC(C)=C[C@H]1c1c(O)cc(CCCCC)c2c1OCN(C1CCC1)C2` as the molecule, how does the inhibition at 20 µM (HCT-116 [3]) read?
The inhibition at 20 µM was 63.4%.

What about the inhibition at 20 µM (MCF7 [4]) of the same molecule?
Its inhibition at 20 µM is 84.9%.

What about the IC50 (HCT-116 [5]) of the same molecule?
The IC50 was 8600 nM.

What about the IC50 (MCF7 [6]) of the same molecule?
The IC50 was 4400 nM.

And the IC50 at 48 h [7]?
The IC50 at 48 h was 28100 nM.

And the selectivity ratio [8]?
The selectivity ratio was 3.2.

And the selectivity ratio [9]?
Its selectivity ratio is 6.4.

And the viability at 4.4 µM (MCF7 [10])?
Its viability at 4.4 µM is 67.8%.

And the Activity (MCF7 [11])?
The Activity was 7.61%.

And the Activity (MCF7 [12])?
The Activity was 18.39%.

And the Activity (MCF7 [13])?
Its Activity is 6.2%.

What about the inhibition (MCF7 [14]) of the same molecule?
Its inhibition is “Active”.

What about the Activity (MCF7 [15]) of the same molecule?
Its Activity is 17.87%.

And the “fold change (FC)” value (MCF7 [16])?
The value was 5.

And the Activity (MCF7 [17])?
Its Activity is 73.84%.

And the Activity (MCF7 [18])?
Its Activity is 15.74%.

And the Activity (MCF7 [19])?
Its Activity is 10.42%.

And the Activity (MCF7 [20])?
The Activity was 48.65%.

What about the inhibition at 4.4 µM (MCF7 [21]) of the same molecule?
Its inhibition at 4.4 µM is roughly 17%.

And the Activity (MCF7 [22])?
Its Activity is “Active”.

And the Activity (MCF7 [23])?
The Activity was “Active”.

What about the Activity (MCF7 [24]) of the same molecule?
Its Activity is “Active”.

And the Activity (MCF7 [25])?
The Activity was “Active”.

And the solubility [26]?
Its solubility is 40 µg/mL (≈ 97.7 µM).

What about the solubility [27] of the same molecule?
The solubility was greater than 1500 µg/mL.

What about the solubility [28] of the same molecule?
Its solubility is greater than 1500 µg/mL.

What about the half-life at 5 µM [29] of the same molecule?
The half-life at 5 µM was 18 min.

And the microsomal CLint at 5 µM [30]?
Its microsomal CLint at 5 µM is 77 µL/min/mg.

And the CLint scaled at 5 µM [31]?
The CLint scaled at 5 µM was 90 mL/min/kg.

And the hepatic extraction ratio at 0.5 h, 5 µM [32]?
Its hepatic extraction ratio at 0.5 h, 5 µM is 0.81.

And the “inhibition (INH)” value (Cytochrome P450 2C19)?
Its value is “Active”.

And the “inhibition (INH)” value (Cytochrome P450 1A2)?
The value was “Active”.

And the permeability [33]?
The permeability was “Impermeable”.

What about the half-life at 5 µM [34] of the same molecule?
The half-life at 5 µM was 10 min.

What about the microsomal CLint at 5 µM [35] of the same molecule?
The microsomal CLint at 5 µM was 146 µL/min/mg.

What about the CLint scaled at 5 µM [36] of the same molecule?
The CLint scaled at 5 µM was 580 mL/min/kg.

What about the hepatic extraction ratio at 0.5 h, 5 µM [37] of the same molecule?
The hepatic extraction ratio at 0.5 h, 5 µM was 0.87.
